We go through one molecule from patent publication US20120022163A1 (priority 2010, published 2012).

Structures are written as SMILES. Entries after “also recorded” stand apart in the source; their conditions may differ. Read-outs that look alike come from different tables or passages of the source.

The test system of data set [1] is RML (Rocky Mountains Laboratories) strain of the mouse scrapie agent. It counts as in vivo, CD1 female mice. The note with it: Log-Rank test.
Data set [2] concerns PrP^sc. It counts as in vivo, CD1 female mice. The note with it: mice sacrificed at clinical end stage; brain.
The subject of data set [3] is PrP^sc. The data set is classed as in vivo, CD1 female mice. The note with it: ip infected mice; cerebellum, hippocampus and parietal cortex.
The conditions of data set [4]: mouse, in vivo, po.
In data set [5] the test system is gamma secretase. The note with it: cited from earlier work.

Turning to `O=C(O)C1(c2ccc(-c3ccc(Cl)c(Cl)c3)c(F)c2)CC1` [CHF 5074], the “survival time, treated versus untreated” value in data set [1] (ic infected mice) is on record as “no difference; also recorded: no effect”; in data set [1] (ip infected mice), “significantly increases the survival; also recorded: significant difference; also recorded: significantly prolongs survival times”. Also, the “content of PrP^sc among the different groups (Western blot)” value in data set [2] is on record as “without significant differences”. The “PrP^sc deposits in brain areas (immunohistochemistry), treated compared to controls” value in data set [3] was “significant lower PrP^sc deposits”. Moreover, in data set [4], the “safety and tolerability of chronic administration” value was “safe and well tolerate”. Also, the “mode of action on gamma secretase” value in data set [5] is “gamma secretase modulator”.
